# How the values were obtained:
# [1] = target: Bifunctional glutamate/proline--tRNA ligase (Homo sapiens, UniProt P07814); assay: Aminoacylation activity against human prolyl-tRNA synthetase
# [2] = target: T1, Proline--tRNA ligase, cytoplasmic (Candida albicans, UniProt P78600); assay: Aminoacylation activity against Candida albicans prolyl-tRNA synthetase
# T1 sequence (P78600 whole entry): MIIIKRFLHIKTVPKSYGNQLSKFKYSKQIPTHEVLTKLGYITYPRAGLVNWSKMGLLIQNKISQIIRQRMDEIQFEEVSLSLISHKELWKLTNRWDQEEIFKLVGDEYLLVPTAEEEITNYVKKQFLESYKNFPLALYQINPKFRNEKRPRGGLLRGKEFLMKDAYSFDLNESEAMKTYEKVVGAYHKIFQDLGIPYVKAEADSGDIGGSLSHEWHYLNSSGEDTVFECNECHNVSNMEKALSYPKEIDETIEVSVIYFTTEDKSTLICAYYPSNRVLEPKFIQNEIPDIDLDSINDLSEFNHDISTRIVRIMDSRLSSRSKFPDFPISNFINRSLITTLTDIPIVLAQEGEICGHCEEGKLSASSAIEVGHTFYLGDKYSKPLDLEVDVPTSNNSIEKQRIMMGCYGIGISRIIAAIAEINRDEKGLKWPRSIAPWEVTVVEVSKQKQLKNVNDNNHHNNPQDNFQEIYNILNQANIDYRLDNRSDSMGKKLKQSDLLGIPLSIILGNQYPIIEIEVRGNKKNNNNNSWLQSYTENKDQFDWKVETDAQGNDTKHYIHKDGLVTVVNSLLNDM
# [3] = Minimum inhibitory concentration (MIC) against Candida albicans (has cellular activity); type: functional
# [4] = Competitive inhibition against Candida albicans prolyl-tRNA synthetase (Ca. ProRS) with respect to ATP
# [5] = Non-competitive inhibition against Candida albicans prolyl-tRNA synthetase (Ca. ProRS) with respect to proline
# [6] = system: Candida albicans; assay: Compound was evaluated for the minimum inhibitory concentration (MIC) against Candida albicans (no cell activity); type: functional
# Sequence of Bifunctional glutamate/proline--tRNA ligase (P07814 whole entry): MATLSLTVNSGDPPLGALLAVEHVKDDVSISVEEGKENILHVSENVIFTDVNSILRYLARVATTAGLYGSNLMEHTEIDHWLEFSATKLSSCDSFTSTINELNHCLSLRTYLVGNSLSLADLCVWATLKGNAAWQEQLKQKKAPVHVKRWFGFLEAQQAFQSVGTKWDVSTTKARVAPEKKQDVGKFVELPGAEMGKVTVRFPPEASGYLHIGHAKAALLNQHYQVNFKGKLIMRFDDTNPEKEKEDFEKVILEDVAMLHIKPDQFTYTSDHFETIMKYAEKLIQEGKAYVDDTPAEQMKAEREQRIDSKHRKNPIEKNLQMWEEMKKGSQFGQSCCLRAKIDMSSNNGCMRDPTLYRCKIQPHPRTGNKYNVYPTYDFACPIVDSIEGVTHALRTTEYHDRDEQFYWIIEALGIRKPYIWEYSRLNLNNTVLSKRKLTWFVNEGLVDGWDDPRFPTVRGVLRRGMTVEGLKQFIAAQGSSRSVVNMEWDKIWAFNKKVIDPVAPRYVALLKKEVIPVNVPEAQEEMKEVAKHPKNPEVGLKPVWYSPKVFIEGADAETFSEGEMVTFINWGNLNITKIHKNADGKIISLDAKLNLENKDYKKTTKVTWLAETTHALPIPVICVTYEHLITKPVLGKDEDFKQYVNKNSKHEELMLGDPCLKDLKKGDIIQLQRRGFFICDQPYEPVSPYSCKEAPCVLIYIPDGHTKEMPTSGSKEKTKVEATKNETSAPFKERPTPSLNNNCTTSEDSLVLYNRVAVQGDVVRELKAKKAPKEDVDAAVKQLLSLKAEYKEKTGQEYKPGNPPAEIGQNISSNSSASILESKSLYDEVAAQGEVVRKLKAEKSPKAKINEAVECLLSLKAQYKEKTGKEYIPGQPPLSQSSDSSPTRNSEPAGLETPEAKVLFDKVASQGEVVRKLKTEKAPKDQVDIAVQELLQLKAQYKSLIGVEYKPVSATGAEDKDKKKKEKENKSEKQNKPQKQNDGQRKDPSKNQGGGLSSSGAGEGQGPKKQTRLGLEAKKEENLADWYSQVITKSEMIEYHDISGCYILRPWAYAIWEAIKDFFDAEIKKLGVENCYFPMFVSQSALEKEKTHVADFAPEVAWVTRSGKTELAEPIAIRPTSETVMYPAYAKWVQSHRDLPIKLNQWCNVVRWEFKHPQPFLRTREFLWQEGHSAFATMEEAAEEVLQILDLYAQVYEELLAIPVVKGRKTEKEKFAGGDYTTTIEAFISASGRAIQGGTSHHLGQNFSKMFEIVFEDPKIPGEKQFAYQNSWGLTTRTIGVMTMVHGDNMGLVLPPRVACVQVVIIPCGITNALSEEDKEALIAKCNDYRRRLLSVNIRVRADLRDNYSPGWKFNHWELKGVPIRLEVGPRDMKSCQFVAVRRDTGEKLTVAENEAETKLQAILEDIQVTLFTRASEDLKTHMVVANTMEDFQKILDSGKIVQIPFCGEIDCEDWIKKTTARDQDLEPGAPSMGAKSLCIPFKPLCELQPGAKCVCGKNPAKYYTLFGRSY
Compound,IC50 [1] [µM],IC50 [2] [µM],also measured
COc1ccc(-c2cc(C(=O)O)c3ccccc3n2)cc1,> 100,> 100,
O=C(O)c1cc(-c2ccc(Br)cc2)nc2c(C(F)(F)F)cc(Br)cc12,56,0.22,
O=C(O)c1cc(-c2ccc(Cl)c(Cl)c2)nc2ccccc12,> 100,19,
Cc1cc(Cl)cc2c(C(=O)OCc3ccco3)cc(-c3ccc(Br)cc3)nc12,> 100,0.07,
Cc1cc(Cl)cc2c(COS(N)(=O)=O)cc(-c3ccc(Br)cc3)nc12,,2.4,
O=C(O)/C=C/c1ccc2nc(-c3ccc(Br)cc3)cc(C(=O)O)c2c1,80,1.3,
O=C(O)c1cc(-c2ccc(Br)cc2)nc2c(CO)cc(Cl)cc12,> 100,1.5,
Cc1cc(Cl)c2nc(-c3ccc(Br)cc3)cc(C(=O)O)c2c1,> 20,0.025,
O=C(O)c1cc(-c2ccc(Br)cc2)nc2ccc(-c3ccc(O)cc3)cc12,35,0.35,
O=C(O)c1cc(-c2ccco2)nc2ccccc12,> 100,> 100,
Cc1cc(C)c2nc(-c3ccc(Br)cc3)cc(C(=O)O)c2c1,> 100,25,
Cc1cc(Cl)cc2c(-c3nn[nH]n3)cc(-c3ccc(Br)cc3)nc12,> 100,0.03,
Cc1cc(Cl)cc2nc(-c3ccc(Br)cc3)cc(C(=O)O)c12,> 100,1.5,
O=C(O)c1cc(-c2ccc(C(F)(F)F)cc2)nc2ccccc12,> 100,> 100,
O=C(O)c1cc(-c2ccc(Br)cc2)nc2ccc(S(=O)(=O)O)cc12,> 100,15,
O=C(O)c1cc(-c2ccc(Cl)s2)nc2ccccc12,> 100,32,

Compound,IC50 [1] [µM],IC50 [2] [µM],also measured
O=C(O)c1cc(-c2ccc(Br)cc2)nc2ccc(Cl)cc12,> 20,0.026,
O=C(O)c1cc(-c2ccc(Br)cc2)nc2ccc(OC(F)(F)F)cc12,> 100,0.053,
O=C(O)c1cc(-c2ccc(Br)cc2)nc2ccc(Br)cc12,> 20,0.025,
Cc1cc(Cl)cc2c(C(=O)OCc3ccc(-c4ccccc4)cc3)cc(-c3ccc(Br)cc3)nc12,> 100,8.8,
O=C(O)c1cc(-c2ccc3ccccc3c2)nc2ccccc12,> 100,3.6,
Cc1cc(Cl)cc2c(C(=O)OCc3ccc(Cl)c(Cl)c3)cc(-c3ccc(Br)cc3)nc12,> 100,0.02,
Cc1c(F)ccc2c(C(=O)O)cc(-c3ccc(Br)cc3)nc12,60,0.12,
Cc1c(Br)ccc2c(C(=O)O)cc(-c3ccc(Br)cc3)nc12,70,0.15,MIC [3]: 25 µg/mL
Nc1ccc2nc(-c3ccc(Br)cc3)cc(C(=O)O)c2c1,95,3.3,
Cc1cc(Cl)cc2c(C(=O)O)cc(-c3ccc(Br)cc3)nc12,> 20,0.005,Ki [4]: 0.0051 µM; Ki [5]: 0.015 µM; MIC [6]: > 100 µg/mL
O=C(O)c1cc(-c2ccc(Br)cc2)nc2ccc(I)cc12,> 100,0.019,
O=C(O)c1cc(-c2ccc(Br)cc2)nc2cc(Cl)cc(Cl)c12,> 100,0.14,
O=C(O)c1cc(-c2ccncc2)nc2ccccc12,> 100,> 100,
COC(=O)C(Cc1ccccc1)NC(=O)c1cc(-c2ccc(Br)cc2)nc2c(C)cc(Cl)cc12 (configuration not stated),> 100,5.7,
O=C(O)c1cc(-c2ccc(Br)cc2)nc2ccccc12,> 100,0.5,
O=C(O)c1cc(-c2ccccc2)nc2ccccc12 [CINCHOPHEN],> 100,> 100,

# — ChEMBL document CHEMBL1134197, “A series of quinoline analogues as potent inhibitors of C. albicans prolyl tRNA synthetase” (Bioorg Med Chem Lett, 2001)
